Laboratory results from patent publication US8058242B2, “Chimeric proteins with natriuretic activity” (The University of Queensland, priority 2004, dated 2011).
Positions of bridges follow the written chain, without caps; N, C: chain ends. Residues, ends and D or L forms follow the SMILES beside them.

How the values were obtained:
[1] = test system: conscious normotensive rabbits; test: Blood pressure and heart rate in conscious normotensive rabbits, intravenous bolus of TDT analogs (Example 17); conditions: i.v. bolus 0.24 mg/kg; for MAP, mean difference from control: at MAP minimum
[2] = biological target: T1, NPR-A signaling in HeLa cells (Homo sapiens, UniProt P16066); test: cGMP AlphaScreen assay in HeLa cells (Examples 14, 15); format: cell-based; conditions: 30 minutes at 37° C.
T1 construct: Cyclic GMP (cGMP) elevation in HeLa cells in response to Natriuretic Peptide stimulation; endogenous in cells; host or cells: HeLa cells
T1 sequence (P16066 33-1061): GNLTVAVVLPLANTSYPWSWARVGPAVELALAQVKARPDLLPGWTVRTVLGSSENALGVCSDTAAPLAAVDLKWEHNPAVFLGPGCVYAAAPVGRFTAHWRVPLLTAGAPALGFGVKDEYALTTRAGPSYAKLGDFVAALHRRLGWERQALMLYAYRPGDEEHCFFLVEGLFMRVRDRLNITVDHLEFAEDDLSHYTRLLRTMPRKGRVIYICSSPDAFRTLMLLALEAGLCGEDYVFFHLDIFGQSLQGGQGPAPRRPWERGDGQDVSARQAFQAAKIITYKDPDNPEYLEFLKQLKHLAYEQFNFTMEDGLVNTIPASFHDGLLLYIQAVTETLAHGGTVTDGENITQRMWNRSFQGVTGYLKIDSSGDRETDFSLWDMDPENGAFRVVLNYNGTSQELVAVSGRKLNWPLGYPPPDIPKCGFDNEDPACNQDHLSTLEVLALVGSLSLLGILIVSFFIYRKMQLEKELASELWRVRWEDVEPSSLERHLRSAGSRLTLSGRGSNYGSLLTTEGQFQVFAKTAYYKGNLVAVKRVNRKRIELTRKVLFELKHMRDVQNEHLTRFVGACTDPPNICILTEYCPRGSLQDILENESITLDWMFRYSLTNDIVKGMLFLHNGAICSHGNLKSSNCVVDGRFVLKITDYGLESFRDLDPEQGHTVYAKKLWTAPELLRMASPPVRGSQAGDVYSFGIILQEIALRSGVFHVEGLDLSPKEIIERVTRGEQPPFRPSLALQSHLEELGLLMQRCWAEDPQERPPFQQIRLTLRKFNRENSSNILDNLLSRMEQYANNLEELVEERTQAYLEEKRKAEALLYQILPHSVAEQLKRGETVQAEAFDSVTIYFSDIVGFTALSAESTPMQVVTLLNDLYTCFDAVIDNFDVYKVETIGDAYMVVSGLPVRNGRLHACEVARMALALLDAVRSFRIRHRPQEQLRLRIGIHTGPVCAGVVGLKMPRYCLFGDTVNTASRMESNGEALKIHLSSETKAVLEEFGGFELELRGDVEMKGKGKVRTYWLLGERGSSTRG
Protocol: HeLa cells were maintained in RPMI cell culture medium (Gihco Invitrogen, Mt Waverley, Australia) supplemented with 10% Foetal Bovine Serum (Cambrex Bio Science, Rockland, USA). Upon reaching confluence, cells were sub-cultured such that they would be 70-90% confluent at time of assay.
Cyclic GMP (cGMP) elevation in HeLa cells in response to Natriuretic Peptide stimulation was performed using a cGMP AlphaScreen kit (PerkinElmer, Boston, USA), as follows for normal experiments: Cells were detached, pelleted to remove growth medium, and resuspended in Stimulation Buffer (Hank's Balanced Salt Solution, 0.1% Bovine Serum Albumin [BSA] (Sigma-Aldrich, Castle Hill, Australia), 1 mM 3-Isobutyl-1-methylxanthine [IBMX] (Sigma-Aldrich, Castle Hill, Australia)) and diluted to 6×10^6 cells per mL (30 000 cells per 5 μL). 5 μL of cells were added to wells of white 384-well OptiPlates (PerkinElmer, Boston, USA), and stimulated with increasing concentrations of peptide for 30 minutes at 37° C. Cells were then lysed with 10 μL Lysis buffer (dH2O, 0.3% Tween-20 (Sigma-Aldrich, Castle Hill, Australia), 5 mM HEPES (JRH Biosciences, Kansas, USA) and 0.1% BSA) and 5 μL acceptor bead mix (10 μL per mL acceptor beads and 1/3000 anti-cGMP antibody (BioVision, Mountain View, USA) in lysis buffer) added per well in the dark. Plates were incubated in the dark at room temperature for 30 minutes, then 5 μL donor bead mix (10 μL per ML donor beads and 0.3 nM biotinylated cGMP in lysis buffer) was added per well in the dark and the plate incubated overnight at room temperature. Signal was read using an EnVision plate reader (PerkinElmer, Boston, USA) and data analysed using Prism software. The cGMP standard curve was performed as per manufacturer's instructions.
To examine whether TNPc and synthetic analogs produced in the inventors' laboratory could stimulate NPR-A signaling, cGMP elevations in HeLa cells in response to these peptides were measured, as described above.

[3] = −Log10EC50 (pEC50) ± Standard Error, cGMP accumulation in HeLa cells

`CC[C@H](C)[C@H](NC(=O)[C@H](CCCCN)NC(=O)[C@H](CO)NC(=O)[C@H](CC(=O)O)NC(=O)[C@@H](N)CO)C(=O)NCC(=O)N[C@@H](CC(N)=O)C(=O)NCC(=O)N[C@H]1CSSC[C@@H](C(=O)N[C@@H](CC(N)=O)C(=O)N[C@@H](CCCNC(=N)N)C(=O)N[C@H](C(=O)N[C@@H](CCSC)C(=O)N[C@@H](CCC(N)=O)C(=O)N[C@@H](CC(N)=O)C(=O)N2CCC[C@H]2C(=O)N2CCC[C@H]2C(=O)N[C@@H](CCCCN)C(=O)N[C@@H](CCCCN)C(=O)N[C@@H](Cc2ccccc2)C(=O)N[C@@H](CO)C(=O)NCC(=O)N[C@@H](CCC(=O)O)C(=O)O)[C@@H](C)CC)NC(=O)CNC(=O)[C@H](CC(C)C)NC(=O)[C@H](CC(N)=O)NC(=O)[C@H](CO)NC(=O)[C@H](C(C)C)NC(=O)[C@H](Cc2c[nH]cn2)NC(=O)[C@H](CC(N)=O)NC(=O)[C@H]([C@@H](C)CC)NC(=O)[C@H](CCCNC(=N)N)NC(=O)[C@H](CC(=O)O)NC(=O)[C@H]([C@@H](C)CC)NC(=O)[C@H](CCCCN)NC(=O)[C@H](CCCNC(=N)N)NC(=O)CNC(=O)[C@H](Cc2ccccc2)NC1=O` [H12R-TDT] was tested, and the “HR, mean difference from control” value [1] was −7±5 b/min, the “time after administration at which the MAP effect occurred, on average” value [1] was 97 min and the “MAP, mean difference from control” value [1] was −9.2±2.2 mmHg.

In the case of `CC[C@H](C)[C@H](NC(=O)[C@H](CCCCN)NC(=O)[C@H](CO)NC(=O)[C@H](CC(=O)O)NC(=O)[C@@H](N)CO)C(=O)NCC(=O)N[C@@H](CC(N)=O)C(=O)NCC(=O)N[C@H]1CSSC[C@@H](C(=O)N[C@@H](CC(N)=O)C(=O)N[C@@H](CCCNC(=N)N)C(=O)N[C@H](C(=O)N[C@@H](CCSC)C(=O)N[C@@H](CCC(N)=O)C(=O)N[C@@H](CC(N)=O)C(=O)N2CCC[C@H]2C(=O)N2CCC[C@H]2C(=O)N[C@@H](CCCCN)C(=O)N[C@@H](CCCCN)C(=O)N[C@@H](Cc2ccccc2)C(=O)N[C@@H](CO)C(=O)NCC(=O)N[C@@H](CCC(=O)O)C(=O)O)[C@@H](C)CC)NC(=O)CNC(=O)[C@H](CC(C)C)NC(=O)CNC(=O)[C@H](CO)NC(=O)[C@H](C(C)C)NC(=O)[C@H](Cc2c[nH]cn2)NC(=O)[C@H](CC(N)=O)NC(=O)[C@H]([C@@H](C)CC)NC(=O)[C@H](CCCNC(=N)N)NC(=O)[C@H](CC(=O)O)NC(=O)[C@H]([C@@H](C)CC)NC(=O)[C@H](CCCCN)NC(=O)[C@H](Cc2c[nH]cn2)NC(=O)CNC(=O)[C@H](Cc2ccccc2)NC1=O` [N22G-TDT] (H-SDSKIGNGCFGHKIDRINHVSGLGCNRIMQNPPKKFSGE-OH; disulfide 9-25), the EC50 [2, 3] is reported as 3.14 nM, the “HR, mean difference from control” value [1] is reported as “little effect on HR” and the “time after administration at which the MAP effect occurred, on average” value [1] is reported as 140 min. For the same compound, the “MAP, mean difference from control” value [1] was −17.4±7.6 mmHg.

In the case of `CC[C@H](C)[C@H](NC(=O)[C@H](CCCCN)NC(=O)[C@H](CO)NC(=O)[C@H](CC(=O)O)NC(=O)[C@@H](N)CO)C(=O)NCC(=O)N[C@@H](CC(N)=O)C(=O)NCC(=O)N[C@H]1CSSC[C@@H](C(=O)N[C@@H](CC(N)=O)C(=O)N[C@@H](CCCNC(=N)N)C(=O)N[C@H](C(=O)N[C@@H](CCSC)C(=O)N[C@@H](CCC(N)=O)C(=O)N[C@@H](CC(N)=O)C(=O)N2CCC[C@H]2C(=O)N2CCC[C@H]2C(=O)N[C@@H](CCCCN)C(=O)N[C@@H](CCCCN)C(=O)N[C@@H](Cc2ccccc2)C(=O)N[C@@H](CO)C(=O)NCC(=O)N[C@@H](CCC(=O)O)C(=O)O)[C@@H](C)CC)NC(=O)CNC(=O)[C@H](CC(C)C)NC(=O)[C@H](CC(N)=O)NC(=O)[C@H](CO)NC(=O)[C@H](C)NC(=O)[C@H](Cc2c[nH]cn2)NC(=O)[C@H](CC(N)=O)NC(=O)[C@H]([C@@H](C)CC)NC(=O)[C@H](CCCNC(=N)N)NC(=O)[C@H](CC(=O)O)NC(=O)[C@H]([C@@H](C)CC)NC(=O)[C@H](CCCCN)NC(=O)[C@H](Cc2c[nH]cn2)NC(=O)CNC(=O)[C@H](Cc2ccccc2)NC1=O` [V20A-TDT] (H-SDSKIGNGCFGHKIDRINHASNLGCNRIMQNPPKKFSGE-OH; disulfide 9-25), the EC50 ([2]; EC50, cGMP accumulation in HeLa cells) is reported as 455 nM and the EC50 [2, 3] is reported as 382 nM.
